Patent US7553966B2, “Glucocorticoid mimetics, methods of making them, pharmaceutical compositions, and uses thereof” (Boehringer Ingelheim Pharmaceuticals, Inc., priority 2002, dated 2009)

What was measured:
[1] = biological target: T1, human glucocorticoid receptor (GR) complex (Homo sapiens, UniProt P04150); assay: Glucocorticoid Receptor Competitive Binding Assay (fluorescence polarization, TAMRA-labeled dexamethasone probe); settings: qualitative statement; competition with TAMRA-labeled dexamethasone
T1 construct: made in house; host or cells: insect expression system (baculovirus lysate)
T1 sequence (P04150 1-777): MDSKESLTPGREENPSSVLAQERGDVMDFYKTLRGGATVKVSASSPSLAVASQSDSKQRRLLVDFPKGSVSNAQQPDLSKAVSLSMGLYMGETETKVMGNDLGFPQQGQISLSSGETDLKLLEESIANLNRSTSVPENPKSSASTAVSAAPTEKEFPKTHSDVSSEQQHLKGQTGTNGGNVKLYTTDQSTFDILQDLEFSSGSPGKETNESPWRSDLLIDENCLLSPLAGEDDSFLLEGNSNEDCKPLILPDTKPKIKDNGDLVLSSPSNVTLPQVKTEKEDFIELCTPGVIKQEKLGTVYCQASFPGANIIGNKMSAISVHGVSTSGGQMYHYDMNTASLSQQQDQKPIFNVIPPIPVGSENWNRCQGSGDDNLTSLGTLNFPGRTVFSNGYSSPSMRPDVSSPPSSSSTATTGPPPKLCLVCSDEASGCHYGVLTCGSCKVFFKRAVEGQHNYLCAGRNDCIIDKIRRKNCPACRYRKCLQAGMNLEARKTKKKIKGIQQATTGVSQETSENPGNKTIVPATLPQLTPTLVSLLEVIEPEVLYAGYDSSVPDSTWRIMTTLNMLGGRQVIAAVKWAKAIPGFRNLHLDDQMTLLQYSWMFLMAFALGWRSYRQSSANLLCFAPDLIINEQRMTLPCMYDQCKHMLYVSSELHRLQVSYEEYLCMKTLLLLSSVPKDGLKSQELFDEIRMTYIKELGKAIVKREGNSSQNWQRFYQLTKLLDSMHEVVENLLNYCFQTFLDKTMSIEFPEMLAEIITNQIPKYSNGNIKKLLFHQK
In short: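 Competition with TAMRA-dexamethasone for a human GR complex expressed in insect cells, read by fluorescence polarization. Buffer was 10 mM TES, 50 mM KCl, 20 mM Na2MoO4, 1.5 mM EDTA, 0.04% CHAPS, 10% glycerol, 1 mM DTT, pH 7.4.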

glucocorticoid receptor = assay: Glucocorticoid Receptor Cell Assays (agonist activity in one or more of the above assays); format: cell-based; settings: qualitative statement; assay not specified

Row | Structure (SMILES) | activity in the GR binding assay [1] | activity as agonists of the glucocorticoid receptor function in one or more of the above assays (glucocorticoid receptor)
1 | CC(C)(CC(O)(Cc1ccnc2ccccc12)C(F)(F)F)c1cc(Br)c2c(c1)CCO2 (stereo not drawn) [4-(7-Bromo-2,3-dihydrobenzofuran-5-yl)-1,1,1-trifluoro-4-methyl-2-quinolin-4-ylmethylpentan-2-ol] | potent activity | potent agonists
2 | COc1cc(F)ccc1C(C)(C)CC(O)(Cc1cc2cc(C#N)ccc2[nH]1)C(F)(F)F (stereo not drawn) [2-[4-(4-Fluoro-2-methoxyphenyl)-2-hydroxy-4-methyl-2-trifluoromethylpentyl]-1H-indole-5-carbonitrile] | potent activity | potent agonists
3 | CC(C)(CC(O)(Cc1ccnc2ccccc12)C(F)(F)F)c1cc(Br)cc2c1OCC2 (stereo not drawn) [4-(5-Bromo-2,3-dihydrobenzofuran-7-yl)-1,1,1-trifluoro-4-methyl-2-quinolin-4-ylmethylpentan-2-ol] | potent activity | potent agonists
4 | Cc1cc(C)c2[nH]c(CC(O)(CC(C)(C)c3cc(F)ccc3O)C(F)(F)F)nc2c1 (stereo not drawn) [2-[3-(5,7-Dimethyl-1H-benzoimidazol-2-ylmethyl)-4,4,4-trifluoro-3-hydroxy-1,1-dimethylbutyl]-4-fluorophenol] | potent activity | potent agonists
5 | COc1ccc(F)cc1C(C)(C)CC(O)(Cc1cc2c(C)cc(C#N)cc2[nH]1)C(F)(F)F (stereo not drawn) [2-[4-(5-Fluoro-2-methoxyphenyl)-2-hydroxy-4-methyl-2-trifluoromethylpentyl]-4-methyl-1H-indole-6-carbonitrile] | potent activity | potent agonists
6 | COc1ccc(F)cc1C(C)(C)CC(O)(Cc1ccnc2ccccc12)C(F)(F)F (stereo not drawn) [1,1,1-Trifluoro-4-(5-fluoro-2-methoxyphenyl)-4-methyl-2-(quinolin-4-ylmethyl)pentan-2-ol] | potent activity | potent agonists
7 | COc1cc(F)ccc1C(C)(C)CC(O)(Cc1[nH]c2ccccc2c1C#N)C(F)(F)F (stereo not drawn) [2-[4-(4-Fluoro-2-methoxyphenyl)-2-hydroxy-4-methyl-2-trifluoromethyl-pentyl]-1H-indole-3-carbonitrile] | potent activity | potent agonists
8 | CC(C)(CC(O)(Cc1cc2ccccc2[nH]1)C(F)(F)F)c1cc(F)cc2c1OCC2 (stereo not drawn) [1,1,1-Trifluoro-4-(5-fluoro-2,3-dihydrobenzofuran-7-yl)-2-(1H-indol-2-ylmethyl)-4-methylpentan-2-ol] | potent activity | potent agonists
9 | COc1ccccc1C(C)(C)CC(O)(Cc1ccnc2ccccc12)C(F)(F)F (stereo not drawn) [1,1,1-Trifluoro-4-(2-methoxyphenyl)-4-methyl-2-quinolin-4-ylmethylpentan-2-ol] | potent activity | potent agonists
10 | CC(C)(CC(O)(Cc1cc2cc(C#N)ccc2[nH]1)C(F)(F)F)c1ccc(F)cc1 (stereo not drawn) [2-[4-(4-Fluorophenyl)-2-hydroxy-4-methyl-2-trifluoromethylpentyl]-1H-indole-5-carbonitrile] | potent activity | potent agonists
11 | COc1ccc(Br)cc1C(C)(C)CC(O)(Cc1ccnc2ccccc12)C(F)(F)F (stereo not drawn) [4-(5-Bromo-2-methoxyphenyl)-1,1,1-trifluoro-4-methyl-2-quinolin-4-ylmethylpentan-2-ol] | potent activity | potent agonists
12 | CC(C)(CC(O)(Cc1ccnc2ccccc12)C(F)(F)F)c1ccccc1O (stereo not drawn) [2-(4,4,4-Trifluoro-3-hydroxy-1,1-dimethyl-3-quinolin-4-ylmethylbutyl)phenol] | potent activity | potent agonists
13 | Cc1ccc(F)cc1C(C)(C)CC(O)(Cc1cc2cc(C#N)ccc2[nH]1)C(F)(F)F (stereo not drawn) [2-[4-(5-Fluoro-2-methylphenyl)-2-hydroxy-4-methyl-2-trifluoromethylpentyl]-1H-indole-5-carbonitrile] | potent activity | potent agonists
14 | Cc1cc2c(c(C(C)(C)CC(O)(Cc3ccnc4ccccc34)C(F)(F)F)c1)OCC2 (stereo not drawn) [1,1,1-Trifluoro-4-methyl-4-(5-methyl-2,3-dihydrobenzofuran-7-yl)-2-quinolin-4-ylmethylpentan-2-ol] | potent activity | potent agonists
15 | COc1ccccc1C(C)(C)CC(O)(Cc1cc2ccccc2[nH]1)C(F)(F)F (stereo not drawn) [1,1,1-Trifluoro-2-(1H-indol-2-ylmethyl)-4-(2-methoxyphenyl)-4-methylpentan-2-ol] | potent activity | potent agonists
16 | Cc1ccccc1C(C)(C)CC(O)(Cc1cc2ccccc2[nH]1)C(F)(F)F (stereo not drawn) [1,1,1-Trifluoro-2-(1H-indol-2-ylmethyl)-4-methyl-4-o-tolylpentan-2-ol] | potent activity | potent agonists
17 | COc1ccc(F)cc1C(C)(C)CC(O)(Cc1cc2cccc(F)c2[nH]1)C(F)(F)F (stereo not drawn) [1,1,1-Trifluoro-2-(7-fluoro-1H-indol-2-ylmethyl)-4-(5-fluoro-2-methoxyphenyl)-4-methylpentan-2-ol] | potent activity | potent agonists
18 | COc1cc(F)ccc1C(C)(C)CC(O)(Cc1cc2ccccc2[nH]1)C(F)(F)F (stereo not drawn) [1,1,1-Trifluoro-4-(4-fluoro-2-methoxyphenyl)-2-(1H-indol-2-ylmethyl)-4-methylpentan-2-ol] | potent activity | potent agonists
